Measurements taken from patent US4656178A (priority 1985, dated 1987).
Structures can show the parent of a compound that is named as a salt. Where two headings read alike, the source gives them in different places.

Columns and labels:
[1] = long-time administration, histological analysis of inner organs; assay type: in vivo, laboratory animals (dogs, rabbits, rats); settings: 10 mg/kg
[2] = pharmacological effects, summary; settings: in vivo
[3] = resorptive effect and toxicity (general state); assay type: in vivo, mice, rats, rabbits and dogs
Source text: The resorptive effect and toxicity of the preparation according to the present invention were studied on mice, rats, rabbits and dogs.

[4] = test system: lethal fibrillation of the heart induced by aconitine; experiment: prevention of lethal fibrillation of the heart induced by aconitine in rats; assay type: in vivo; settings: 0.5 and 1 mg/kg
[5] = 6-month histological toxicity, rabbits; assay type: in vivo; settings: intravenous, 0.1 and 0.5 mg/kg, 6 months
[6] = test system: central adreno- and cholinergic processes; experiment: central effects (sedative, adreno-, cholinergic, serotonin); settings: in vivo
[7] = duration of antiarrhythmic effect compared with quinidine and novocainamide; settings: in vivo
Method: The duration of the antiarrhythmic action of the preparation was studied on rats intravenously administered with aconitine 1, 2, 4, 6, 24 and 48 hours after the preparation administration per os.

[8] = test system: cardiac arrhythmia caused by ligation of the descending branch of the left coronary artery; experiment: cardiac arrhythmia caused by ligation of the descending branch of the left coronary artery (Harris method) in dogs; assay type: in vivo
Method: The effect of the preparation according to the present invention on the cardiac arrhythmia caused by ligation of the descending branch of the left coronary artery by the Harris method was studied in experiments on dogs. The preparation according to the present invention was intravenously administered on the first and second post-operative days. Preliminarily, prior to every experiment 30 to 45 minutes before the administration of the preparation the background changes of the dogs' electrocardiogram (ECG) were recorded. […] In 40% thereof a full suppression of ectopic contractions was noticed for 3-3.5 hours, whereafter arrhythmia appeared with the intensity thereof not reaching the initial background during 7 hours.

[9] = test system: aconitine arrhythmia; experiment: animal or person; assay type: in vivo, rats
Method: The assessment of the antiarrhythmic activity of the preparation was effected in acute and chronical experiments on rats, rabbits, cats and dogs. Various experimental models of arrhythmia were also used.
The atrioventricular arrhythmia caused by aconitine is one of the most reliable models for forecasting the efficiency of the antiarrhythmic action of the novel preparation in clinics. The experiments were conducted on both narcotized and non-narcotized animals. The preparation was administered per os, intramuscularly, intraperitoneally and intravenously 5 to 15 minutes prior to or 3-5 minutes after the administration of aconitine.
In doses of 0.2-0.5 mg/kg the preparation of this invention prevents the appearance of aconitine arrhythmia in 100% of the rats. […] Under similar experimental conditions a preliminary administration of novocainamide in the dose of 60 mg/kg intravenously produced an antiarrhythmic effect in 50% of the animals.

[10] = test system: cardiac arrhythmia induced by barium chloride; experiment: cardiac arrhythmia induced by barium chloride; assay type: in vivo, narcotized rats and intact rabbits; settings: 0.1 mg/kg, injected 10 minutes prior to barium
Method: The study of the antiarrhythmic activity of the preparation according to the present invention on a model of cardiac arrhythmia induced by barium chloride was carried out on 56 narcotized rats and 16 intact rabbits. The preparation of the present invention in the dose of 0.1 mg/kg injected 10 minutes prior to administration of barium prevented the development of arrhythmia in 86.6% of the animals.

[11] = test system: cardiac rhythm disturbances; experiment: clinical study in patients with cardiac rhythm disturbances; assay type: in vivo, human
Method: The clinical study of the preparation according to the present invention was carried out on 200 patients suffering from various diseases accompanied by different cardiac rhythm disturbances (ischemic heart disease, diverse kinds of cardiomyopathy). The preparation was administered intravenously using 1-2 ampoules (0.5% solution of the preparation, 2 ml) and per os in tablets of 50 mg each (2-3 tablets a day during the first 2 days and 1-2 tablets a day during all following days). ECG characteristics, arterial pressure, heart beat rate and various parameters of hemodynamics were recorded.

[12] = test system: arrhythmia induced by adrenalin; experiment: arrhythmia induced by adrenalin in dogs with ligated coronary artery; assay type: in vivo; settings: 0.1-0.2 mg/kg
[13] = test system: cardiac conductive system; assay type: in vivo, narcotized rats, cats, intact rabbits and dogs
Source text: To investigate the character of the effect produced on the functions of the cardiac conductive system by the preparation according to the present invention, the ECG changes appearing in narcotized rats, cats, intact rabbits and dogs under the action of the preparation of this invention were studied. […] The effect of the preparation is retained for a long time.

[14] = test system: cardiotoxic effect of the preparation; experiment: sodium bicarbonate at cardiotoxic effect of the preparation in dogs; settings: toxic doses
[15] = 6-month histological toxicity, rats; assay type: in vivo; settings: per os, 1 mg/kg, 6 months
[16] = test system: potassium channels of the membrane of neurons; experiment: ion currents through the somatic membrane of mollusc neurons: potassium channels; assay type: cell-based, mollusca
Source text: The study of the effect produced by the preparation of the present invention on ion currents through the somatic membrane of neurons has shown that it selectively interacts with calcium and potassium channels of the membrane of neurons of mollusca, whereby the currents along these channels are suppressed.

CCN1CC2(OC(=O)c3ccccc3NC(C)=O)CCC(OC)C34C1C(CC23)C1(O)CC(OC)C2CC4C1(O)C2OC (centres unmarked) [lappaconitine hydrobromide]
structural changes in inner organs [1]: structural changes in the inner organs | moderate additional effects [2]: moderate coronarydilating, spasmolytic, local anesthetic, anti-inflammatory and sedative effects | reduction of systemic arterial pressure and negative inotropic effect [2]: not accompanied by reduction of the systemic arterial pressure, and a negative inotropic effect on the cardiac tissue | changes in general state of animals ([3]; 0.1-1 mg/kg intravenously, 1-5 mg/kg intraperitoneally, 5-20 mg/kg per os): no considerable changes in the general state of the animals are observed | signs in mice and rats ([3]; higher doses, 5 minutes on average after administration): adynamia, delayed responses, weakening of the muscular tension, rarification and deepening of breathing, lowering of the body temperature | additional signs ([3]; sublethal and lethal doses): hypersalivation, diarrhea, acute disturbances of breathing | prevention of lethal fibrillation of the heart [4]: fully prevents a lethal fibrillation of the heart | destructive changes of inner organs and tissues [5]: no destructive changes on the part of inner organs and tissues | central sedative effect [6]: weak central sedative effect | effect on central adreno- and cholinergic processes [6]: does not provide any substantial effect on central adreno- and cholinergic processes | serotonin-negative effect [6]: weak | duration of effect relative to quinidine and novocainamide [7]: 10 times | animals with antiarrhythmic effect ([8]; 0.5 mg/kg intravenously): 86% | animals with 100% antiarrhythmic effect over 5 hours ([8]; 1 mg/kg): 60% | animals with full suppression of ectopic contractions for 3-3.5 hours ([8]; 1 mg/kg): 40% | animals with full inhibition of ventricular extrasystole ([8]; 1 mg/kg intravenously): 100% | duration of full suppression of ectopic contractions ([8]; 1 mg/kg, in 40% of the animals): 3 to 3.5 h | time during which reappearing arrhythmia does not reach the initial background ([8]; 1 mg/kg, in 40% of the animals): 7 h | duration of 100% antiarrhythmic effect ([8]; 1 mg/kg, in 60% of the animals): over 5 hours | heart beat rate ([8]; accompanying reduction or arresting of arrhythmia, all experiments): reduction of the heart beat rate | time of appearance of antiarrhythmic effect ([8]; after intravenous administration): 5 to 15 min | activity relative to novocainamide (times more active) ([8]; dog, in vivo): 70 times | duration and rapidity of effect relative to novocainamide ([8]; dog, in vivo): considerably superior to it in the duration of the effect, but inferior to novocainamide in the rapidity of occurrence of the antiarrhythmic effect | relationship of effect to dose ([8]; dog, in vivo): in a direct relationship with the administered dose | minimal effective dose ([9]; Rattus norvegicus, read-out: dose from which the antiarrhythmic effect is revealed): 0.03 mg/kg | animals in which appearance of aconitine arrhythmia is prevented ([9]; doses of 0.2-0.5 mg/kg, rats): 100% | antiarrhythmic index (LD50/ED50) ([9]; prophylactic effect, aconitine arrhythmia): 118.0 | animals in which development of arrhythmia is prevented [10]: 86.6% | efficiency by form ([11]; course treatment): more efficient for course treatment in tabletted forms | contraindications ([11]; human, in vivo): No contraindications | side effects (hypotension, changed heart beat rate, pulse, breathing) ([11]; patients): not observed | antiarrhythmic effect in patients ([11]; patients with stable form of ventricular and supraventricular extrasystole): pronounced antiarrhythmic effect | side effects in some cases ([11]; per os, intramuscular or intravenous): weakness or giddeness | time after which side effects pass ([11]; weakness or giddeness): 10 to 15 min | duration of effect [12]: more than 2 hours | effect on arrhythmia induced by adrenalin [12]: cuts short the arrhythmia induced by adrenalin | effect on arterial pressure and on adrenalin hypertension [12]: does not affect the level of arterial pressure or the height of elevation of arterial pressure (hypertension) caused by adrenalin | time to maximum effect [12]: 5 to 10 min | effect on ECG ([13]; 1-2 mg/kg): increase the ranges PQ, QRS, QT, insignificantly R-R; the ripple S is deepened, the amplitude of the ripple T is uniformly increased | effect on myocardial conductivity and sinus node automatism ([13]; in vivo): lowers conductivity of the myocardium and, to a lesser extent, automatism of the sinus node | sublethal and lethal doses ([13]; intravenous): 4 to 6 mg/kg | effect on ECG ([13]; intravenous, 0.5 mg/kg): deceleration of the atrioventricular conductivity and a certain rarification of the rhythm | effect on ECG ([13]; intravenous, 4-6 mg/kg): growing inhibition of conductivity along the cardiac conducting system | effect on ECG ([13]; rats, intravenous, 0.05 to 0.25 mg/kg): does not cause in rats any substantial effect on the ECG | arterial pressure in overdosing [14]: reduction of the arterial pressure | destructive changes of inner organs and tissues [15]: no destructive changes on the part of inner organs and tissues | effect on currents along potassium channels [16]: suppressed
